In patent publication US9434725B2, “5-azaindazole compounds and methods of use” (priority 2012, dated 2016):

Tests used:
BaF3 PIM1 cells = test: In vitro cell proliferation potency assay (Cell Titer Glo), BaF3 PIM1 cells; assay type: cell-based, murine; settings: Mus musculus, BaF3, BaF3 cells transfected with PIM1, incubated overnight; read-out: Prolif BaF3_PIM 1 (IC50)
Description: BaF3 parental line was obtained from the DSMZ repository. BaF3 lines transfected with PIM1 or PIM2 were generated. Mouse IL-3 was purchased from R&D Systems. G418 was purchased from Clontech. Media for BaF3 parental line contained RPMI, 10% FBS, 2 mM L-Glutamine, 2 ng/mL mIL-3. Media for BaF3 PIM1 & 2 lines contained RPMI, 10% FBS, 2 mM L-Glutamine, […]. Media for MM1.S (multiple myeloma cells) line contained RPMI, 10% FBS, 2 mM L-Glutamine.
BaF3, a murine interleukin-3 dependent pro-B cell line, parental cells, BaF3 PIM1 cells, BaF3 PIM2 cells, and MM1.S (multiple myeloma) cells were seeded at 2 k/well, 5 k/well, 5 k/well, and 10 k/well respectively, in a 384-well plate, at 45 μL/well. Test compound was added at 5 μL/well. BaF3 cells (parental and transfected) were incubated overnight, while MM1.S cells were incubated for 72 hours at 37° C., 5% CO2. CELL TITER GLO® Reagent (Promega) was added at 50 μL/well, the plates were incubated for 30 minutes, and their luminescence read on an HT Analyst. IC50/EC50 values for the test compound were calculated.

PIM2 = PIM2 (Homo sapiens (Human), UniProt Q9P1W9); test: Pim kinase binding activity, Caliper LC3000 microfluidic peptide phosphorylation assay, PIM2; assay type: biochemical; settings: 10 μM ATP, 90 min, room temperature; read-out: PIM2 LC3K (KI)
PIM2, sequence (Q9P1W9 whole entry): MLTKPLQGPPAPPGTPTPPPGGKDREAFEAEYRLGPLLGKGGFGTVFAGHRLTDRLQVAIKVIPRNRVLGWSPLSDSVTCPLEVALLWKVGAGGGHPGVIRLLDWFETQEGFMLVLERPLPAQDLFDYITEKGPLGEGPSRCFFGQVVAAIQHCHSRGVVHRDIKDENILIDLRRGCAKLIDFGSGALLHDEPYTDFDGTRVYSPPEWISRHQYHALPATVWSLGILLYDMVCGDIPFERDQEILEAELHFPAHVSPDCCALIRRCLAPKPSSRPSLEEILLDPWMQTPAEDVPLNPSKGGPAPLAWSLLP
Method in brief: (§1)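 Read-out is microfluidic electrophoretic separation of phosphorylated from unphosphorylated fluorescent Pim peptide, with Ki calculated from conversion. Reactions ran 90 min at room temperature in HEPES pH 7.2 containing MgCl2, Tween 20 and DTT, ended by EDTA-containing buffer.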

PIM3 = PIM3 (Homo sapiens (Human), UniProt Q86V86); test: Pim kinase binding activity, Caliper LC3000 microfluidic peptide phosphorylation assay, PIM3; assay type: biochemical; settings: 10 μM ATP, 90 min, room temperature; read-out: PIM3 LC3K (KI)
Method in brief: as §1

PIM1 = PIM1 (Homo sapiens (Human), UniProt P11309); test: biochemical; assay type: biochemical; settings: 10 μM ATP, 90 min, room temperature; read-out: PIM1 LC3K (KI)
PIM1, sequence (P11309 whole entry): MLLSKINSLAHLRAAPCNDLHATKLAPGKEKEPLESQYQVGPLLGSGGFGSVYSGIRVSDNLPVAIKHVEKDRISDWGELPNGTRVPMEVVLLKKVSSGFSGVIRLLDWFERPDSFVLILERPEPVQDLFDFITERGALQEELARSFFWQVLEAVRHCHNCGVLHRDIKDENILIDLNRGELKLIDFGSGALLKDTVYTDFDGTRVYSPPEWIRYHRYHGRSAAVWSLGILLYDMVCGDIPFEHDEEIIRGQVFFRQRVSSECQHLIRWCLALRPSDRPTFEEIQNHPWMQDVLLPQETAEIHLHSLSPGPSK
Method in brief: as §1

| SMILES | IC50 (BaF3 PIM1 cells) | Ki (PIM2) | Ki (PIM3) | Ki (PIM1) |
| --- | --- | --- | --- | --- |
| Cc1cncc(-c2cc3c(cn2)cnn3-c2cccc(N3C[C@@H](N)C[C@@H](F)C3)n2)n1 [Compound 198, (3S,5R)-5-fluoro-1-[6-[6-(6-methylpyrazin-2-yl)pyrazolo[4,3-c]pyridin-1-yl]-2-pyridyl]piperidin-3-amine] | 1100 nM | 2.55 nM | 0.089 nM | 0.117 nM |
| CC(C)(C)n1cc(-c2cc3c(cn2)cnn3-c2cccc(N3CCCNCC3)n2)cn1 [Compound 145, 1-(6-(1,4-Diazepan-1-yl)pyridin-2-yl)-6-(1-tert-butyl-1H-pyrazol-4-yl)-1H-pyrazolo[4,3-c]pyridine] | 2500 nM | 10.5 nM | 0.636 nM | 0.362 nM |
| N[C@@H]1CCCN(c2cccc(-n3ncc4cnc(-c5cncs5)cc43)n2)C1 [Compound 110, (3R)-1-[6-(6-thiazol-5-ylpyrazolo[4,3-c]pyridin-1-yl)-2-pyridyl]piperidin-3-amine] | 1700 nM | 4.5 nM | 0.37 nM | 0.504 nM |
| COc1cncc(-c2cc3c(cn2)cnn3-c2cccc(N3CCNCC3)n2)n1 [Compound 130, 6-(6-methoxypyrazin-2-yl)-1-(6-piperazin-1-yl-2-pyridyl)pyrazolo[4,3-c]pyridine] | 1500 nM | 1.87 nM | 0.068 nM | 0.113 nM |
| CCc1cncc(-c2cc3c(cn2)cnn3-c2ccc(Cl)c(N3CCC[C@H](N)C3)n2)c1 [Compound 117, (S)-1-(3-chloro-6-(6-(5-ethylpyridin-3-yl)-1H-pyrazolo[4,3-c]pyridin-1-yl)pyridin-2-yl)piperidin-3-amine] | 2900 nM | 1.03 nM | 0.098 nM | 0.141 nM |
| CCc1cncc(-c2cc3c(cn2)cnn3-c2cccc(N3CCNCC(O)C3)n2)n1 (centres unmarked) [Compound 172, 1-[6-[6-(6-ethylpyrazin-2-yl)pyrazolo[4,3-c]pyridin-1-yl]-2-pyridyl]-1 4-diazepan-6-ol] | 111 nM | 1.47 nM | 0.048 nM | 0.034 nM |
| Cc1cncc(-c2cc3c(cn2)cnn3-c2cccc(N3CCC(N)CC3)n2)n1 [Compound 194, 1-[6-[6-(6-methylpyrazin-2-yl)pyrazolo[4,3-c]pyridin-1-yl]-2-pyridyl]piperidin-4-amine] | 1500 nM | 3.12 nM | 0.125 nM | 0.243 nM |
| Cc1cncc(-c2cc3c(cn2)cnn3-c2cccc(N3C[C@@H](N)C[C@H](F)C3)n2)n1 [Compound 192, (3S,5S)-5-fluoro-1-[6-[6-(6-methylpyrazin-2-yl)pyrazolo[4,3-c]pyridin-1-yl]-2-pyridyl]piperidin-3-amine] | 1700 nM | 3.35 nM | 0.21 nM | 0.428 nM |
| Cc1cncc(-c2cc3c(cn2)cnn3-c2cccc(N3CCC[C@@H](O)C3)n2)n1 [Compound 298, (R)-1-(6-(6-(6-methylpyrazin-2-yl)-1H-pyrazolo[4,3-c]pyridin-1-yl)pyridin-2-yl)piperidin-3-ol] | 1600 nM | 2.68 nM | 0.396 nM | 0.854 nM |
| C[C@]1(O)CNCCN(c2cccc(-n3ncc4cnc(-c5cnn(CC(F)(F)F)c5)cc43)n2)C1 [Compound 248, (S)-6-Methyl-1-(6-(6-(1-(2,2,2-trifluoroethyl)-1H-pyrazol-4-yl)-1H-pyrazolo[4,3-c]-pyridin-1-yl)pyridin-2-yl)-1,4-diazepan-6-ol] |  | 22.1 nM | 3.36 nM | 1.64 nM |
| O=c1cncc(-c2cc3c(cn2)cnn3-c2cccc(N3CCNCC3)n2)[nH]1 [Compound 287, 6-[1-(6-piperazin-1-yl-2-pyridyl)pyrazolo[4,3-c]pyridin-6-yl]-1H-pyrazin-2-one] |  | 17.5 nM | 0.37 nM | 0.698 nM |
| CCn1cc(-c2cc3c(cn2)cnn3-c2cncc(N3CCCNCC3)n2)cn1 [Compound 163, 1-(6-(1,4-diazepan-1-yl)pyrazin-2-yl)-6-(1-ethyl-1H-pyrazol-4-yl)-1H-pyrazolo[4,3-c]pyridine] |  | 26.6 nM | 2.96 nM | 1.63 nM |
| Cc1cncc(-c2cc3c(cn2)cnn3-c2ccc(C(F)(F)F)c(N3CCNCC(O)C3)n2)n1 (centres unmarked) [Compound 219, 1-(6-(6-(6-methylpyrazin-2-yl)-1H-pyrazolo[4,3-c]pyridin-1-yl)-3-(trifluoromethyl)pyridin-2-yl)-1,4-diazepan-6-ol] |  | 12.5 nM | 0.265 nM | 0.433 nM |
| c1cc(N2CCCNCC2)nc(-n2ncc3cnc(-c4cnn(CC5CC5)c4)cc32)c1 [Compound 161, 1-(6-(1,4-Diazepan-1-yl)pyridin-2-yl)-6-(1-(cyclopropylmethyl)-1H-pyrazol-4-yl)-1H-pyrazolo[4,3-c]pyridine] |  | 18.8 nM | 2.19 nM | 1.86 nM |
| Cc1cncc(-c2cc3c(cn2)cnn3-c2cccc(C3CNCCC3O)n2)n1 (centres unmarked) [Compound 265, 3-[6-[6-(6-methylpyrazin-2-yl)pyrazolo[4,3-c]pyridin-1-yl]-2-pyridyl]piperidin-4-ol] |  | 8.79 nM | 0.206 nM | 0.941 nM |

The next lines start with the values.

| IC50 (BaF3 PIM1 cells) | Ki (PIM2) | Ki (PIM3) | Ki (PIM1) | SMILES |
| --- | --- | --- | --- | --- |
| 1600 nM | 4.17 nM | 0.248 nM | 0.419 nM | Cc1cncc(-c2cc3c(cn2)cnn3-c2cccc(N3CCC[C@H](O)C3)n2)n1 [Compound 299, (S)-1-(6-(6-(6-methylpyrazin-2-yl)-1H-pyrazolo[4,3-c]pyridin-1-yl)pyridin-2-yl)piperidin-3-ol] |
| 2200 nM | 1.22 nM | 0.046 nM | 0.055 nM | Cc1cncc(-c2cc3c(cn2)cnn3-c2ccc(C3CC3)c(N3CCCNCC3)n2)n1 [Compound 197, 1-(5-cyclopropyl-6-(1,4-diazepan-1-yl)pyridin-2-yl)-6-(6-methylpyrazin-2-yl)-1H-pyrazolo[4,3-c]pyridine] |
| 1000 nM | 2.65 nM | 0.199 nM | 0.385 nM | Cc1cncc(-c2cc3c(cn2)cnn3-c2cccc(N3CCC4(CNC4)C3)n2)n1 [Compound 214, 1-[6-(2 6-diazaspiro[3.4]octan-6-yl)-2-pyridyl]-6-(6-methylpyrazin-2-yl)pyrazolo[4,3-c]pyridine] |
| 715 nM | 2.95 nM | 0.094 nM | 0.223 nM | Cc1cncc(-c2cc3c(cn2)cnn3-c2cccc(N3CCC4(CCCN4)CC3)n2)n1 [Compound 216, 8-[6-[6-(6-methylpyrazin-2-yl)pyrazolo[4,3-c]pyridin-1-yl]-2-pyridyl]-1 8-diazaspiro[4.5]decane] |
| 1500 nM | 3.67 nM | 0.093 nM | 0.182 nM | COc1ccc(-n2ncc3cnc(-c4cncc(C)n4)cc32)nc1N1CCNCC(O)C1 (centres unmarked) [Compound 207, 1-(3-methoxy-6-(6-(6-methylpyrazin-2-yl)-1H-pyrazolo[4,3-c]pyridin-1-yl)pyridin-2-yl)-1,4-diazepan-6-ol] |
|  | 8.33 nM | 0.185 nM | 0.283 nM | NC(=O)Cn1cc(-c2cc3c(cn2)cnn3-c2cccc(N3CCCNCC3)n2)cn1 [Compound 159, 2-(4-(1-(6-(1,4-Diazepan-1-yl)pyridin-2-yl)-1H-pyrazolo[4,3-c]pyridin-6-yl)-1H-pyrazol-1-yl)acetamide] |
|  | 9.11 nM | 0.181 nM | 0.165 nM | c1cc(N2CCNCC2)nc(-n2ncc3cnc(-c4cncc(C5CC5)c4)cc32)c1 [Compound 111, 6-(5-cyclopropylpyridin-3-yl)-1-(6-(piperazin-1-yl)pyridin-2-yl)-1H-pyrazolo[4,3-c]pyridine] |
|  | 31.1 nM | 1.62 nM | 2.46 nM | CCn1cc(-c2cc3c(cn2)cnn3-c2cccc(NC3CCCCNC3)n2)cn1 (centres unmarked) [Compound 143, N-(6-(6-(1-ethyl-1H-pyrazol-4-yl)-1H-pyrazolo[4,3-c]pyridin-1-yl)pyridin-2-yl)azepan-3-amine] |
|  | 20.4 nM | 0.361 nM | 1.08 nM | Cn1cc(-c2cc3c(cn2)cnn3-c2cccc(N3CC(O)(CN)C3)n2)cn1 [Compound 270, 3-(Aminomethyl)-1-(6-(6-(1-methyl-1H-pyrazol-4-yl)-1H-pyrazolo[4,3-c]pyridin-1-yl)pyridin-2-yl)azetidin-3-ol] |
|  | 8.6 nM | 0.37 nM | 0.715 nM | Cn1cc(-c2cc3c(cn2)cnn3-c2cccc(C3(F)CCCNCC3)n2)cn1 (centres unmarked) [Compound 236, 1-(6-(4-Fluoroazepan-4-yl)pyridin-2-yl)-6-(1-methyl-1H-pyrazol-4-yl)-1H-pyrazolo[4,3-c]pyridine] |
| 1500 nM |  | 0.077 nM | 0.119 nM | CCc1cncc(-c2cc3c(cn2)cnn3-c2cccc(N3CCNCC3)n2)c1 [Compound 104, 6-(5-ethylpyridin-3-yl)-1-(6-(piperazin-1-yl)pyridin-2-yl)-1H-pyrazolo[4,3-c]pyridine] |
